In patent US10300074B2, “Use of inhibitor of apoptosis protein (IAP) antagonists in HIV therapy” (Sanford-Burnham Medical Research Institute, priority 2014, dated 2019):

Key:
[1] = tested on: Latently infected Jurkat JLat 10.6 cells; settings: HDAC inhibitor in combination with Compound 35, 36 hours, normalized against background of HDAC inhibitor alone
XIAP BIR3 = XIAP BIR3 (Homo sapiens (Human), UniProt P98170); assay: XIAP BIR3 Ki; assay type: binding
XIAP BIR1/2 = XIAP BIR1/2 (Homo sapiens (Human), UniProt P98170); assay: XIAP BIR1/2 Ki; assay type: binding
ML-IAP = ML-IAP (Homo sapiens (Human), UniProt Q96CA5); assay: ML-IAP Ki; assay type: binding
ML-IAP, sequence (Q96CA5 whole entry): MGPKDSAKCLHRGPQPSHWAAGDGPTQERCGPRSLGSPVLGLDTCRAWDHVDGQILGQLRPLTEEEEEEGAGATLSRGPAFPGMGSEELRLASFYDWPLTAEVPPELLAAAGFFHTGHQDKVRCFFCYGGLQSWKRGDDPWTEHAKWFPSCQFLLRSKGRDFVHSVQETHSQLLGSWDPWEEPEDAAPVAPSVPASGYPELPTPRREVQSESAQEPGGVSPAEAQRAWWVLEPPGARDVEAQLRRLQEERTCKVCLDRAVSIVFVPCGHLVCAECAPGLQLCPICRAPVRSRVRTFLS

XIAP BIR3, sequence (P98170 241-356): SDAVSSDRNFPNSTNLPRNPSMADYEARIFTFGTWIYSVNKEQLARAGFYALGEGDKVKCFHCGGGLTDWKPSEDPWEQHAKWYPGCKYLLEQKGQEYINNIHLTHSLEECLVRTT
XIAP BIR1/2, sequence (P98170 1-240): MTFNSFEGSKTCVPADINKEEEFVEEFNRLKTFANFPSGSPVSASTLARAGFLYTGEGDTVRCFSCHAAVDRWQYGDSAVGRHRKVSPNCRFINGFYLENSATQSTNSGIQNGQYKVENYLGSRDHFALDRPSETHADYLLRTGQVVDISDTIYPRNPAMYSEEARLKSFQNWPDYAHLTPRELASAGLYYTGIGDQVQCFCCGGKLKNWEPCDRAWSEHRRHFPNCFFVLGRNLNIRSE

| SMILES | Ki (XIAP BIR3; Table B-1) [µM] | Ki (XIAP BIR1/2; Table B-1) [µM] | further results |
| --- | --- | --- | --- |
| CCCC(=O)OCc1ccc(OC(=O)/C=C(C)/C=C/C=C(C)/C=C/C2=C(C)CCCC2(C)C)cc1 [ATRA-BA Hybrid, Retinoic acid, 4-[(1-oxobutoxy)methyl]phenyl ester] | – | – | Group: increase of GFP+ cells [1]: A (A 0-25%) |
| CCC(=O)CCCCC[C@@H]1NC(=O)[C@H]2CCCCN2C(=O)[C@H]([C@@H](C)CC)NC(=O)[C@H](Cc2cn(OC)c3ccccc23)NC1=O [Apicidin] | – | – | Group: increase of GFP+ cells [1]: C (C 50-75%) |
| Nc1ccccc1NC(=O)CCCCCCC(=O)Nc1ccccc1 [BML-210, Octanediamide, N1-(2-aminophenyl)-N8-phenyl-] | – | – | Group: increase of GFP+ cells [1]: A (A 0-25%) |
| CC(C)(C)OC(=O)Nc1ccc(-c2cc(C(=O)NCCCCCCC(=O)NO)no2)cc1 [BML-281, Carbamic acid, N-[4-[3-[[[7-(hydroxyamino)-7-oxoheptyl]amino]carbonyl]-5-isoxazolyl]phenyl]-, 1,1-dimethylethyl ester] | – | – | Group: increase of GFP+ cells [1]: B (B 25-50%) |
| CC(=O)Nc1ccc(C(=O)Nc2ccccc2N)cc1 [CI-994, Benzamide, 4-(acetylamino)-N-(2-aminophenyl)-] | – | – | Group: increase of GFP+ cells [1]: A (A 0-25%) |
| CN[C@@H](C)C(=O)N[C@H]1CO[C@H]2CCC(C(=O)Nc3ccc(OC)cc3)N2C1=O (some centres unmarked) [Compound 3] | 25 to 50 | – | – |
| CN[C@@H](C)C(=O)N[C@H]1CO[C@H]2CCC(C(=O)Nc3ccc(OC)cc3)N2C1=O (some centres unmarked) [Compound 4] | 25 to 50 | > 50 | – |
| CN[C@@H](C)C(=O)N[C@H]1CO[C@H]2CCC(C(=O)NCc3ccccc3)N2C1=O (some centres unmarked) [Compound 5] | 25 to 50 | > 50 | – |
| CN[C@@H](C)C(=O)N[C@H]1CO[C@H]2CCC(C(=O)NCc3ccccc3)N2C1=O (some centres unmarked) [Compound 6] | 25 to 50 | – | – |
| CN[C@@H](C)C(=O)N[C@H]1CO[C@H]2CCC(C(=O)Nc3ccc(OC)cc3)N2C1=O (some centres unmarked) [Compound 7] | 25 to 50 | – | – |
| CN[C@@H](C)C(=O)N[C@H]1CO[C@H]2CCC(C(=O)Nc3ccc(Cl)cc3)N2C1=O (some centres unmarked) [Compound 8] | 25 to 50 | > 50 | – |
| CN[C@@H](C)C(=O)N[C@H]1CO[C@H]2CCC(C(=O)NC3CCCc4ccccc43)N2C1=O (some centres unmarked) [Compound 9] | ≤ 25 | > 50 | – |
| CN[C@@H](C)C(=O)N[C@@H]1C(=O)N2C(C(=O)NC3CCCc4ccccc43)CC[C@@H]2O[C@@H]1C (some centres unmarked) [Compound 10] | ≤ 25 | > 50 | Ki (ML-IAP; Table B-1): ≤ 25 µM |
| CN[C@@H](C)C(=O)N[C@@H]1C(=O)N2C(C(=O)Nc3cccc4ccccc34)CC[C@@H]2O[C@@H]1C (some centres unmarked) [Compound 11] | 25 to 50 | > 50 | – |
| CN[C@@H](C)C(=O)N[C@H]1CCO[C@H]2CCC(C(=O)N[C@@H]3CCCc4ccccc43)N2C1=O (some centres unmarked) [Compound 12] | ≤ 25 | > 50 | Ki (ML-IAP; Table B-1): ≤ 25 µM |
| CN[C@@H](C)C(=O)N[C@H]1CCO[C@H]2CCC(C(=O)Nc3cccc4ccccc34)N2C1=O (some centres unmarked) [Compound 13] | ≤ 25 | ≤ 25 | – |
| CN[C@@H](C)C(=O)N[C@H]1CCO[C@H]2CCC(C(=O)NC(c3ccccc3)c3ccccc3)N2C1=O (some centres unmarked) [Compound 14] | ≤ 25 | > 50 | Ki (ML-IAP; Table B-1): ≤ 25 µM |
| CN[C@@H](C)C(=O)N[C@@H]1C(=O)N2C(C(=O)NC(c3ccccc3)c3ccccc3)CC[C@@H]2O[C@@H]1C (some centres unmarked) [Compound 15] | 25 to 50 | > 50 | – |
| CN[C@@H](C)C(=O)N[C@H]1CCCNC2CCC(C(=O)NC3CCCc4ccccc43)N2C1=O (some centres unmarked) [Compound 16] | ≤ 25 | 25 to 50 | – |
| CN[C@@H](C)C(=O)N[C@H]1CCCNC2CCC(C(=O)Nc3cccc4ccccc34)N2C1=O (some centres unmarked) [Compound 17] | ≤ 25 | ≤ 25 | – |
| CN[C@@H](C)C(=O)N[C@H]1CCO[C@H]2c3ccccc3C(C(=O)N[C@@H]3CCCc4ccccc43)N2C1=O (some centres unmarked) [Compound 17a] | – | – | Ki (XIAP BIR1/2; Table 2-2): > 50 µM; Ki (XIAP BIR3; Table 2-2): ≤ 25 µM; Ki (ML-IAP; Table 2-2): ≤ 25 µM |
| CN[C@@H](C)C(=O)N[C@H]1CCO[C@H]2CC(C)(C)C(C(=O)N[C@@H]3CCCc4ccccc43)N2C1=O (some centres unmarked) [Compound 17b] | – | – | Ki (XIAP BIR1/2; Table 2-2): ≤ 25 µM; Ki (XIAP BIR3; Table 2-2): ≤ 25 µM; Ki (ML-IAP; Table 2-2): ≤ 25 µM |
| CN[C@@H](C)C(=O)N[C@H]1CCS[C@H]2CC(C)(C)C(C(=O)N[C@@H]3CCCc4ccccc43)N2C1=O (some centres unmarked) [Compound 17c] | – | – | Ki (XIAP BIR3; Table 2-2): ≤ 25 µM; Ki (ML-IAP; Table 2-2): ≤ 25 µM |
| CC(=O)N(C)[C@@H](C)C(=O)N[C@H]1CCCN(C(C)=O)[C@H]2CCC(C(=O)Nc3cccc4ccccc34)N2C1=O (some centres unmarked) [Compound 18] | 25 to 50 | > 50 | – |
| CC(=O)N(C)[C@@H](C)C(=O)N[C@H]1CCCN(C(C)=O)[C@H]2CCC(C(=O)Nc3cccc4ccccc34)N2C1=O (some centres unmarked) [Compound 19] | 25 to 50 | – | – |
| CN[C@@H](C)C(=O)N[C@H]1CCCN(C(C)=O)C2CCC(C(=O)NC3CCCc4ccccc43)N2C1=O (some centres unmarked) [Compound 20] | ≤ 25 | > 50 | – |
| CN[C@@H](C)C(=O)N[C@H]1CCO[C@H]2CCC(C(=O)n3ccc4ccccc43)N2C1=O (some centres unmarked) [Compound 22] | 25 to 50 | > 50 | – |
